{
  "source": "patent US20110224297A1",
  "about": "“Methods of administering prostratin and structural analogs thereof” (priority 2008, published 2011)",
  "key": {"[1]": {"assay": "In vitro metabolism in rat liver microsomes", "type": "in vitro ADME", "source_text": "In vitro metabolism of prostratin was investigated using mouse, rat, monkey, and human liver microsomes (Gentest). […] Attempts to identify the metabolite by LC/MS/MS were unsuccessful due to the low amounts present in the reaction mixtures (FIG. 1)."}, "[2]": {"system": "Escherichia coli tester strain WP2uvrA", "assay": "Escherichia coli/mammalian-microsome reverse mutation assay with confirmatory assay", "type": "cell-based", "settings": "100 to 5000 μg per plate; presence or absence of S9", "source_text": "The objective of this study was to evaluate the test article, prostratin, for the ability to induce reverse mutations either in the presence or absence of mammalian microsomal enzymes at 1) the histidine locus in the genome of several strains of Salmonella typhimurium and at 2) the tryptophan locus of Escherichia coli tester strain WP2uvrA.\nThe doses tested in the mutagenicity assay were selected based on the results of a dose range finding study using tester strains TA100 and WP2uvrA and ten doses of test article ranging from 6.67 to 5000 μg per plate, one plate per dose, both in the presence and absence of S9 mix.\nThe tester strains used in the mutagenicity assay were Salmonella typhimurium tester strains TA98, TA100, TA1535, and TA1537 and Escherichia coli tester strain WP2uvrA. The assay was conducted with five doses of test article in both the presence and absence of S9 mix along with concurrent vehicle and positive controls using three plates per dose. The doses tested were 100, 333, 1000, 3330, and 5000 μg per plate in both the presence and absence of S9 mix. The results of the initial mutagenicity assay were confirmed in an independent experiment."}, "[3]": {"system": "cultured human peripheral blood lymphocytes", "assay": "Chromosomal aberrations in cultured human peripheral blood lymphocytes", "type": "cell-based", "experimental": "The objective of this in vitro assay was to evaluate the ability of prostratin to cause structural chromosomal aberrations in cultured human lymphocytes with and without an exogenous metabolic activation system.\nDimethylsulfoxide (DMSO) was the vehicle of choice for this study. […] The stock solution and its dilutions were dosed using a dosing volume of 1% (10 μL/ml) and the vehicle control cultures were treated with 10.0 μL/ml of DMSO.\nIn the initial chromosomal aberrations assay, the treatment period was for 3 hours with and without metabolic activation, and cultures were harvested ˜22 hours from the initiation of treatment. Replicate cultures of human whole blood lymphocytes were incubated with test article at 23.7, 33.9, 48.4, 69.2, 98.9, 141, 202, 288, 412, 588, 840, 1200, 1720, 2450, and 3500 μg/ml with and without metabolic activation. Cultures treated with concentrations of 412, 588, 840, and 1200 μg/ml without metabolic activation and 588, 840, 1200, and 1720 μg/ml with metabolic activation were analyzed for chromosomal aberrations.\nIn the confirmatory chromosomal aberrations assay, the treatment period was ˜22 hours without metabolic activation and 3 hours with metabolic activation, and cultures were harvested ˜22 hours from the initiation of treatment. Replicate cultures of human whole blood lymphocytes were incubated with test article at 15.6, 31.3, 62.5, 125, 188, 250, 375, 500, 750, 1000, 1400, and 1700 μg/ml without metabolic activation and 250, 500, 1000, 1400, 1700, 2000, and 2500 μg/ml with metabolic activation. Cultures treated with concentrations of 125, 250, 500, and 1400 μg/ml without metabolic activation and 1400, 1700, 2000, and 2500 μg/ml with metabolic activation were analyzed for chromosomal aberrations.\nFor all treatment conditions, the vehicle and negative control cultures were within the expected range and the historical control data and the positive control cultures induced significant increases in chromosomal aberrations."}, "[4]": {"assay": "Pharmacokinetic studies in mice", "type": "in vivo, CD2F1 mice", "experimental": "Studies were conducted in CD2F1 mice using both the i.p. route (1.9 mg/kg) and the i.v. route (0.76 mg/kg). The vehicle was 10% DMSO: 10% Cremophor: 80%:0.9% saline for both routes. Doses used were preciously determined as maximally tolerated. Drug was detected out to 4 hr but was only quantifiable out to 3 hr post drug administration (see FIG. 5A, B). Data are presented as mean±SD where n=5. Data that were detected beyond 3 hr post drug administration are shown as “BLQ” (below the limit of quantification of the validated assay). Data were fit using 1 and 2 compartment pharmacokinetic models using ADAPT II computer program. In general the 2-compartment model provided a better fit for the data than did a 1-compartment model (Table 2). […] For the two-compartment model the situation was reversed (i.e. more variance for the model predicted PK parameters with lower residual values for the individual plasma concentration data)."}, "[5]": {"assay": "In vivo rat bone marrow micronucleus assay", "design": "species or system CD® (SD) IGS BR rat", "settings": "CD (SD) IGS BR, rat, in vivo, once by oral gavage, dose range-finding study, read-out: maximum tolerated dose", "experimental": "(§1) The objective of this study was to evaluate the test article, prostratin, for in vivo clastogenic activity and/or disruption of the mitotic apparatus by detecting micronuclei in polychromatic erythrocytes (PCE) in CD® (SD) IGS BR rat bone marrow.\n(§2) In the dose range-finding study, the test article was dissolved in ethanol followed by dilution with 0.9% Sodium Chloride for Injection to achieve a final ethanol:saline vehicle (0.8:99.2 v/v) at the appropriate dosing concentrations. The formulations were administered once by oral gavage to three males and three females per dose level. The animals were dosed at 0.4, 0.5, 2, or 5 mg/kg and observed for up to 2 days after dosing for toxic signs and/or mortality.\n(§3) Based on the results of the dose range-finding study, the maximum tolerated dose was estimated to be 2.4 mg/kg in the male animals and 2 mg/kg in the female animals. In the micronucleus assay, the test article was dissolved in ethanol followed by dilution with 0.9% Sodium Chloride for Injection to achieve a final ethanol:saline vehicle (0.8:99.2 v/v) at the appropriate dosing concentrations.\n(§4) Bone marrow was extracted and at least 2000 PCEs per animal were analyzed for the frequency of micronuclei. Cytotoxicity was assessed by scoring the number of PCEs and normochromatic erythrocytes (NCEs) in at least the first 500 total erythrocytes for each animal."}, "[6]": {"system": "polychromatic erythrocytes (PCE) in CD® (SD) IGS BR rat bone marrow", "assay": "In vivo rat bone marrow micronucleus assay", "experimental": "as §1, §2, §3, §4"}, "[7]": {"settings": "mice, IP (1.9 mg/kg), 2-compartment model"}, "[8]": {"settings": "mice, IV (0.76 mg/kg), 2-compartment model"}, "[9]": {"settings": "mice, i.p. 1.9 mg/kg and i.v. 0.76 mg/kg"}},
  "note": "Read-outs that look alike come from different tables or passages of the source.",
  "data": [
    {"compound": "CC(=O)O[C@@]12C[C@@H](C)[C@@]3(O)[C@@H](C=C(CO)C[C@]4(O)C(=O)C(C)=C[C@@H]34)[C@@H]1C2(C)C", "note": "[prostratin, 12-deoxyphorbol 13-acetate]", "values": [
      {"measurement": "metabolism (time-dependent loss of parent compound)", "setting": "[1]", "result": "substantially less"},
      {"measurement": "mean number of revertants per plate", "setting": "[2]", "result": "did not cause a positive increase"},
      {"measurement": "cells with chromosomal aberrations, polyploidy, or endoreduplication", "setting": "[3]; confirmatory assay, ~22 hours without and 3 hours with metabolic activation, 125-1400 μg/ml without, 1400-2500 μg/ml with", "result": "No significant increase"},
      {"measurement": "cells with chromosomal aberrations, polyploidy, or endoreduplication", "setting": "[3]; initial assay, 3 hours with and without metabolic activation, 412-1200 μg/ml without, 588-1720 μg/ml with", "result": "No significant increase"},
      {"measurement": "induction of chromosomal aberrations, overall", "setting": "[3]; without and with an exogenous metabolic activation system", "result": "negative"},
      {"measurement": "clearance", "setting": "[4]; CD2F1, mouse, plasma, intraperitoneal and intravenous, mice, both the i.p and i.v. routes", "result": "200 to 250", "unit": "mL/min/kg"},
      {"measurement": "half-life", "setting": "[4]; CD2F1, mouse, plasma, ip, 1.9 mg/kg, mice, IP (1.9 mg/kg), 2-compartment model, read-out: T1/2 a (converted)", "result": 20.4, "unit": "min"},
      {"measurement": "half-life", "setting": "[4]; CD2F1, mouse, plasma, ip, 1.9 mg/kg, mice, IP (1.9 mg/kg), 2-compartment model, read-out: T1/2 b (converted)", "result": 12600, "unit": "min"},
      {"measurement": "half-life", "setting": "[4]; CD2F1, mouse, plasma, ip, 1.9 mg/kg, mice, IP (1.9 mg/kg), read-out: T1/2 [1-compartment model] (converted)", "result": 20.4, "unit": "min"},
      {"measurement": "half-life", "setting": "[4]; CD2F1, mouse, plasma, iv, 0.76 mg/kg, mice, IV (0.76 mg/kg), 2-compartment model, read-out: T1/2 a (converted)", "result": 27.6, "unit": "min"},
      {"measurement": "half-life", "setting": "[4]; CD2F1, mouse, plasma, iv, 0.76 mg/kg, mice, IV (0.76 mg/kg), 2-compartment model, read-out: T1/2 b (converted)", "result": 1170, "unit": "min"},
      {"measurement": "half-life", "setting": "[4]; CD2F1, mouse, plasma, iv, 0.76 mg/kg, mice, IV (0.76 mg/kg), read-out: T1/2 [1-compartment model] (converted)", "result": 31.8, "unit": "min"},
      {"measurement": "CLt", "setting": "[4]; [7]", "result": 219.2, "unit": "mL/min/kg"},
      {"measurement": "Vc", "setting": "[4]; [7]", "result": 11.03, "unit": "L/kg"},
      {"measurement": "CLt", "setting": "[4]; [8]", "result": 252.7, "unit": "mL/min/kg"},
      {"measurement": "Vc", "setting": "[4]; [8]", "result": 17.32, "unit": "L/kg"},
      {"measurement": "time out to which drug was detected in plasma", "setting": "[4]; [9]", "result": 4, "unit": "h"},
      {"measurement": "time out to which drug was quantifiable in plasma", "setting": "[4]; [9]", "result": 3, "unit": "h"},
      {"measurement": "maximally tolerated dose", "setting": "[4]; mice, i.p. route", "result": 1.9, "unit": "mg/kg"},
      {"measurement": "maximally tolerated dose", "setting": "[4]; mice, i.v. route", "result": 0.76, "unit": "mg/kg"},
      {"measurement": "cumulative urinary excretion", "setting": "[4]; pooled samples from five mice dosed i.p. (1.9 mg/kg), up to 24 hours", "result": "< 5 % of the administered dose"},
      {"measurement": "MTD", "setting": "[5]; female rats", "result": 2, "unit": "mg/kg"},
      {"measurement": "MTD", "setting": "[5]; male rats", "result": 2.4, "unit": "mg/kg"},
      {"measurement": "micronucleated PCEs", "setting": "[6]; 0.5, 1, or 2 mg/kg for females, 0.6, 1.2, and 2.4 mg/kg for males", "result": "did not induce statistically significant increases"},
      {"measurement": "cytotoxicity to the bone marrow (PCE:NCE ratios)", "setting": "[6]; any dose of the test article", "result": "not cytotoxic"},
      {"measurement": "clinical observations", "setting": "[6]; female animals, 2 mg/kg, approximately one hour post-dose, mortality, irregular respiration, piloerection, and/or recumbency", "result": "signs of clinical toxicity"},
      {"measurement": "rat bone marrow micronucleus assay, overall", "setting": "[6]; rat, in vivo", "result": "negative"}
    ]}
  ]
}
